Series [1] has as its system spontaneously hypertensive rats. The experiment in a line: Activity against blood pressure (Test Example 1-1), tail-cuff measurement after oral administration. It is filed as in vivo. Conditions: Rattus norvegicus. The protocol:
Male spontaneously hypertensive rats (20 to 30 weeks) were employed. After being heated in a heating box at 45 ° C for about 5 minutes, the rats were put in holders for measuring blood pressure, and blood pressure cuffs were set on the rats. After the rat's heart rate was stabilized, blood pressure of each rat was measured by a sphygmomanometer for rat (8002e, made by W + W Co., Ltd.) before the administration, and one hour, three hours and six hours after the administration. Each test compound dissolved in a 0.5 % solution of methyl cellulose was administered orally in a volume of 5 mℓ/kg.
Change of the blood pressure was calculated by the following formula.
(§1) Change rate (%) = [(Measured value after administration - Measured value before administration)/Measured value before administration] x 100

For a further series, the system named is angiotensin II. Put plainly: Inhibitory activity against angiotensin II, constriction response of ileum preparations (Test Example 5). It is filed as cell-based, Hartrey male guinea pigs. The protocol: From Hartrey male guinea pigs weighing about 500 g, ileum preparations were prepared. […] Thereinto 3 x 10^-8M of angiotensin II was added and constriction response of each preparation was measured through a isometoric transducer (made by Nihon Koden Kogyo Co., Ltd.). Before the addition of angiotensin II, a compound of the present invention or saralasin was previously added into a Magnus trough. Contractive responses in both cases were compared and Inhibition rate was calculated by the following formula.
Angiotensin II Inhibition rate = (1 - Tension in case of adding test compound/Tension of control) x 100

The subject of series [2] is convulsion caused by pentylenetetrazole. Put plainly: Activity against convulsion caused by pentylenetetrazole (Test Example 6). The note with it: summary of Table 4. The series is classed as in vivo, Slc: ddy male mice. The protocol:
Slc: ddy male mice weighing 24 to 32 g (5 weeks) were bred under an environment of 22° to 24° C room temperature and 60 % humidity for 1 week, and then the bred mice were subjected to a test. The test was carried out as the following procedure. One hour after the oral administration of a test compound, 40 mg/kg of pentylenetetrazole was administered in a caudal vein. Appearance of tonic extensive convulsion was measured as an indication, and anticonvulsive activity was examined. Each test compound was suspended in a 0.5 % solution of methyl cellulose, which was used for a control group.

The subject of series [3] is Spontaneous hypertensive male rats. Put plainly: Duration of blood pressure reduction activity (Test Example 1-2), direct aortic pressure without anesthesia. It is filed as in vivo. Conditions: oral, 3 mg/kg or 10 mg/kg, Figure 1. On the procedure: Spontaneous hypertensive male rats (35 weeks) were employed. Before the day the test was carried out, rats were anesthetized with ether, and then, a polyethylene tube was inserted into an aorta abdominalis of the each rat. The other end of the polyethylene tube was led out of the rat's body, and the led polyethylene tube was connected with a pressure transducer. Blood pressure of each rat was measured by a polygraph (RM-85, made by Nihon Koden Kohgyo Co., Ltd.) without anesthesia before the administration, at intervals of one hour for eight hours after the administration and 24 hours after the administration.
Each test compound disolved in a 0.5 % solution of methyl cellulose was administered orally in a volume of 5 m í/kg and in a dose of 3 mg/kg or 10 mg/kg.
As is clear from Figure 1, blood pressure reduction activity of the compound No. 1 lasted for at least eight hours.

In series [4] the test system is model of vasopressin myocardial ischemia. Put plainly: Activity against a model of vasopressin myocardial ischemia (ST wave depression, Test Example 3). The series is classed as in vivo, Donryu strain male rats. Conditions: intravenous, five minutes before vasopressin 0.3 µg/kg, compared with nicardipine or nifedipine, Figure 3. The protocol:
In accordance with a method of Hiramatu et al. (Japanese Journal Pharmacology 20,313 to 324,1970), Donryu strain male rats weighing 142 to 265 g were employed. Rats were anesthetized by intraperitoneally administering 60 mg/kg of pentobarbital sodium. After intravenous administration of 0.3 µg/kg of vasopressin, electrocardiogram (lead II) was recorded every one minute for five minutes. The maximum depression of ST wave in electrocardiogram was measured as an indication of myocardial ischemia. Five minutes before the administration of vasoperessin, each test compound dissolved in a mixted solution containing 20 % of propylen glycol and 5 % of glucose, was administered intravenously in a dose of 1 mt/kg.

The test system of series [5] is left circumflex coronary artery and right vertebral artery blood flow. Put plainly: Activity against blood flow in anesthetized dogs (Test Example 4). The note with it: intravenous, compared with nicardipine or nimodipine, Figure 4. The series is classed as in vivo, Beagle dogs. On the procedure: Beagle dogs weighing 7 to 14 kg were employed, irrespective of sex. Dogs were anesthetized by intravenously administering 30 mg/kg of pentobarbital sodium (Nembutal). During the test […] of pentobarbital was injected continually into each dog. A endotracheal tube was inserted into each trachea. Incision was performed along the midline of the chest and a heart was exposed. Probes of a electromagnetic flowmeter (made by Nihon Koden Kohgyo Co., Ltd.) were set on a left circumflex coronary artery and a right vertebral artery. Each parameter was recorded simultaneously by polygragh (made by Nihon Koden Kogyo Co., Ltd.). […] Change of blood flow was calculated by the following Change rate.
as §1

The nature of series [6]: Acute toxicity (Test Example 7). The note with it: rat, in vivo; oral administration, death rate after 7 days; read-out: Rat LDso. The protocol: In each group 5 Slc: Wistar male rats weighing 100 g to 114 g (4 weeks) were employed. The compound No. 1 was administered orally thereto and with death rate after 7 days a value of acute toxicity was measured.
Rat LDso = 300 to 1000 mg/kg (oral administration)

Series [7] concerns atrioventricular conduction system. The note with it: rat, in vivo, iv.
Description: Wistar rats weighing 400 to 500 g were employed. Rats were anesthetized by intraperitoneally administering 50 mg/kg of pentobarbital sodium, and electrocardiogram of each rat was recorded in lead II. PQ interval (interval from a begining point of P wave to a begining point of Q wave) in electrocardiogram was measured. Each test compound adjusted with a mixed solution containing 20 % of propylene glycol and 5 % of glucose, was administered additionally in a volume of 0.5 m L/kg in order through a polyethylene tube which was inserted into femoral vein. Electrocardiogram was recorded every one minute for five minutes after the administration at a chart speed of 100 mm/sec.
Activity against PQ interval of a test compound was calculated by the following formula.
Change rate (%) = [(PQ interval after administration - PQ interval before administration)/PQ interval before administration] x 100
Setting [8] is: 1 h, one hour after administration, read-out: Change rate of blood pressure 1 hr. value.
Setting [9] is: 3 h, three hours after administration, read-out: Change rate of blood pressure 3 hr. value.
Where [10] appears, read: 6 h, six hours after administration, read-out: Change rate of blood pressure 6 hr. value.

Structures can show the parent of a compound that is named as a salt. Where two headings read alike, the source gives them in different places.

`C#Cc1cccc(F)c1C1C(C(=O)OC)=C(C)NC(C)=C1C(=O)OCCN1CCN(C(c2ccccc2)c2ccccc2)CC1` (stereo not shown) [compound 2, 4-(2-ethynyl-6-fluorophenyl)-3-methoxycarbonyl-2,6-dimethyl-5-(N-diphenylmethylpiperazinylethoxycarbonyl)-1,4-dihydropyridine]: the change in vivo at 30 mg/kg is -25% in series [1] (setting [8]), -22.5% in series [1] (setting [9]) and -10% in series [1] (setting [10]).

Consider `C#Cc1cccc(C2C(C(=O)OC)=C(C)NC(C)=C2C(=O)OCCN2CCN(C(c3ccc(C)cc3)c3ccc(C)cc3)CC2)c1` (stereo not shown) [compound 5, 4-(3-ethynylphenyl)-3-methoxycarbonyl-2,6-dimethyl-5-(N-di-4-methyl-phenylmethylpiperazinylethoxycarbonyl)-1,4-dihydropyridine], for which the change in vivo at 10 mg/kg in series [1] (setting [8]) is -41.5%; in series [1] (setting [9]), -41.5%; in series [1] (setting [10]), -29.2%.

Take `COC(=O)C1=C(C)NC(C)=C(C(=O)OCCN(C)Cc2ccccc2)C1c1cccc([N+](=O)[O-])c1` (stereo not shown) [Nicardipine, 2-(N-benzyl-N-methylamino)ethyl, methyl 2,6-dimethyl-4-(3-nitrophenyl)-1,4-dihydropyridinedicarboxylate hydrochloride, reference compound]: the change in vivo at 10 mg/kg in series [1] (setting [8]) is -35%; in series [1] (setting [9]), -3.5%; in series [1] (setting [10]), -2%.

Consider `C#Cc1cccc(C2C(C(=O)OC)=C(C)NC(C)=C2C(=O)OCCCN2CCN(c3ccccc3OC)CC2)c1` (stereo not shown) [compound 18, 4-(3-ethynylphenyl)-3-methoxycarbonyl-5-[3-(N-2-methoxyphenyl-piperazinyl)propoxycarbonyl]-2,6-dimethyl-1,4-dihydropyridine], for which the change in vivo at 10 mg/kg in series [1] (setting [8]) was -5.3%; in series [1] (setting [9]), -12.4%; in series [1] (setting [10]), -14.3%.

With Saralasin [reference compound], the “Angiotensin II Inhibition rate (%)” value in the series with angiotensin II (Concentration 10^-7 M, 3 x 10^-8M angiotensin II) came out at 47.3%.

In the case of `C#Cc1cccc(C2C(C(=O)OC)=C(C)NC(C)=C2C(=O)OCCN2CCN(C(c3ccc(F)cc3)c3ccc(F)cc3)CC2)c1` (stereo not shown) [compound 4, 4-(3-ethynylphenyl)-3-methoxycarbonyl-2,6-dimethyl-5-(N-di-4-fluorophenylmethylpiperazinylethoxycarbonyl)-1,4-dihydropyridine], the change in vivo at 10 mg/kg in series [1] (setting [8]) was -41.2%; in series [1] (setting [9]) it was -40.9%; in series [1] (setting [10]), -35.7%.

With `O=C1NC(=O)C(c2ccccc2)(c2ccccc2)N1` [Diphenylhidantoin, reference compound], the anticonvulsive activity entry in series [2] was “showing anticonvulsive activity”.

`C#Cc1cccc(C2C(C(=O)OC)=C(C)NC(C)=C2C(=O)OCCN2CCN(C(c3ccccc3)c3ccccc3)CC2)c1` (stereo not shown) [Compound No. 1, 4-(3-ethynylphenyl)-3-methoxycarbonyl-2,6-dimethyl-5-(N-diphenyl-methylpiperazinylethoxycarbonyl)-1,4-dihydropyridine]: the change in vivo at 10 mg/kg is -39% in series [1] (setting [8]), -45.2% in series [1] (setting [9]) and -43.3% in series [1] (setting [10]). For the same molecule, in series [3], the “Duration of blood pressure reduction activity” value was “at least eight”. The “antimyocardial ischemia activity (maximum depression of ST wave)” value in series [4] is given as “greater antimyocardial ischemia activity than that of nicardipine or nifedipine”. Moreover, the “activity for increasing coronary blood flow” value in series [5] is on record as “greater activity”. Besides, in series [5], the “activity for increasing vertebral blood flow” value is listed as “greater activity”. In addition, in the series with angiotensin II (Cavia porcellus, Concentration 10^-6 M, 3 x 10^-8M angiotensin II, read-out: Angiotensin II Inhibition rate (%)), the inhibition (in general, how much of the control response was suppressed) at 1 µM worked out at 71.1%. In addition, in the series on angiotensin II (Cavia porcellus, Concentration 10^-7 M, 3 x 10^-8M angiotensin II, read-out: Angiotensin II Inhibition rate (%)), the inhibition at 0.1 µM was determined as 56.2%. Moreover, in the series on angiotensin II (Cavia porcellus, Concentration 10^-8 M, 3 x 10^-8M angiotensin II, read-out: Angiotensin II Inhibition rate (%)), the inhibition at 0.01 µM was 6.5%. Besides, in the series on angiotensin II (compared with saralasin, positive control drug), the “Inhibitory activity against angiotension II” value is given as “the same extent of Inhibitory activity against angiotension II as that of saralasin”. The anticonvulsive activity result in series [2] is “did not show the activity”. For the same molecule, in series [6], the LD50 at 168 h fell in the range of 300 to 1000 mg/kg. In series [7], the “influence on artrioventricular conduction system (change rate of PQ interval)” value is “less influence on artrioventricular conduction system as compared with nicardipine”.

`COCCOC(=O)C1=C(C)NC(C)=C(C(=O)OC(C)C)C1c1cccc([N+](=O)[O-])c1` (stereo not shown) [Nimodipine, isopropyl, 2-methoxyethyl 2,6-dimethyl-4-(3-nitrophenyl)-1,4-dihydropyridinedicarboxylate, reference compound]: the change in vivo at 10 mg/kg is -11% in series [1] (setting [8]), -11% in series [1] (setting [9]) and -10.2% in series [1] (setting [10]).

Consider `C#Cc1cccc(C2C(C(=O)OC)=C(C)NC(C)=C2C(=O)OC(C)CN2CCN(C(c3ccccc3)c3ccccc3)CC2)c1` (stereo not shown) [compound 37, 4-(3-ethynylphenyl)-3-methoxycarbonyl-2,6-dimethyl-5-[2-(N-diphenyl-methylpiperazinyl)-1-methylethoxycarbonyl]-1,4-dihydropyridine], for which the change in vivo at 30 mg/kg in series [1] (setting [8]) is -38.1%; in series [1] (setting [9]), -44.7%; in series [1] (setting [10]), -48.7%.

Take `C#Cc1cccc(C2C(C(=O)OCCN3CCN(C(c4ccccc4)c4ccccc4)CC3)=C(C)NC(N)=C2C(=O)OCC)c1` (stereo not shown) [compound 26, 4-(3-ethynylphenyl)-3-ethoxycarbonyl-2-amino-6-methyl-5-(N-diphenylmethylpiperazinylethoxycarbonyl)-1,4-dihydropyridine]: the values for the change in vivo at 30 mg/kg in series [1] (setting [8]), in series [1] (setting [9]) and in series [1] (setting [10]) were -38.8%, -43.8% and -41.5%, respectively.
